The source of these data is patent US20090220996A1, “In vitro Assay Methods for Classifying Embryotoxicity of Compounds” (RELIANCE LIFE SCIENCES PVT LTD., priority 2007, published 2009).

The test system of one data set is mouse ES cells. The note with it: Table 4; from the EST (Genschow, et al., 2000); cited from earlier work.
The subject of data set [1] is 3T3 (mouse fibroblast cell line). The following applies: Table 4; from the EST (Genschow, et al., 2000); cited from earlier work.
The test system of data set [2] is human embryoid bodies (hEBs). As to the kind of experiment: Morphological evaluation of embryoid bodies (photomicrographs). The data set is classed as cell-based. The following applies: day 7 hEBs; FIG. 4A-4D. The protocol: Hanging drops were made in hES media with LIF and bFGF for calculating IC50-hES cells, and in hES media without LIF and bFGF (hEB media) for the formation of EBs. On day 3 the hES colonies were collected along with the respective test compound concentration, whereas the hEBs were collected and transferred to 60 mm bacteriological petri plates for another 2 days. Morphology of the EBs was monitored under the microscope for the formation of EBs. On day 5 the hEBs were plated in a 96 well plate for MTT, as well as on a 6 well plate for RNA extraction. The media along with the appropriate test compound concentration was replaced in the 96 well and 6 well plates on days 7, 9, 11, and 13. On day 15, MTT was performed on the hES plate and the differentiated EBs. RNA was extracted from all the concentrations of 5-fluorouracil, and 1 μg of RNA was converted to cDNA to perform RT-PCR, real time PCR, or TLDA.

Data set [3] deals with human embryonic stem cells (hES). Put plainly: Cytotoxicity in undifferentiated human embryonic stem cells, day 15 (FACS with PI / CyQUANT). The format is cell-based. The note with it: Homo sapiens, Embryonic stem cell. The protocol: In general, the presently disclosed embryotoxicity testing protocols comprise the following sequence of steps. Studies using embryoid bodies generally comprise: a) preparation of various concentrations of test solutions in culture medium or a desired solvent; b) preparation of a cell suspension by enzymatic digestion of human embryonic stem cell colonies; c) culturing the cell suspension for formation of embryoid bodies in the presence and absence of one or more test solutions, and incubation for several days (e.g., three days) in hanging drops; d) cultivation of the embryoid bodies in bacteriological petri dishes for several days (e.g., two days) under controlled conditions; e) transfer of the embryoid bodies into 96 well plates and incubation for several days (e.g., 10 days) in the presence of one or more test solutions; and f) detection of the viability of the embryoid bodies after 15 days by MTT assay, or fluorescent or luminescent method, and isolation of RNA for studying gene expression. Studies using human foreskin fibroblasts (HFF) generally comprise: a) preparation of various concentrations of test solutions in culture medium or a desired solvent; b) plating of HFF cells in 96 well plates in the presence or absence of one or more test solutions for 15 days, changing the media and test solutions every 2 days; and c) detection of the viability of HFF after 15 days by MTT assay, or fluorescent or luminescent method. Studies using human embryonic stem cells generally comprise: a) preparation of various concentrations of test solutions in culture medium or a desired solvent; b) preparation of hES colonies by manual passage in the presence and absence of one or more test solutions, and incubation for 15 days on matrigel coated plates changing the media and test solutions every 2 days; c) disruption of the colonies after 15 days with enzymes to form single cells; d) labeling of single cells with a fluorescently-labeled dye, such as propidium iodide (“PI”); and e) detection of the percentage viability with FACS as a measure of cytotoxicity. […]
After 2 hours incubation, 150 μl of assay medium containing the appropriate concentration of test chemical (150 μl volume contains 1.333× the final chemical concentration) was added. Appropriate blanks without the chemicals were used along with the test samples The cell cultures were incubated at 5% CO2 and 37° C. for 3 days. On day 3, test solution was removed with the care, so that the cell layer on the bottom of the wells was not disturbed. Next, 200 μl of freshly prepared test solution (final concentration/well as on day 0) was added, and the cell cultures were incubated at 5% CO2 and 37° C. for 3 days. This process was repeated on days 6, 9, and 12. Determination of cell growth inhibition was performed at day 15 of the assay using MTT reagent. Cytotoxicity for hES cells was calculated using flow cytometry. Briefly, cells were placed on matrigel coated plates along with different test compound concentrations. Media was replaced every 3 days along with the different test compound concentrations. At day 15, hES cells were collected by trypsinization, and after washing with PBS, the cells were incubated with PI for 10 minutes in the dark. Percent viability for various test compound concentrations was calculated using flow cytometry.
Cytotoxicity analysis of three cell types (hES, hEBs and HFF) was evaluated using the CyQUANT assay following compound treatment. All data were the mean of three independent experiments for each cell type. Data is represented as the mean±SE.

For data set [4] the following is noted: Table 5; cited from earlier work.
The subject of data set [5] is human embryoid bodies (hEB). As to the kind of experiment: Cytotoxicity in human embryoid bodies, day 15 (MTT / CyQUANT). The note with it: for IC50: Homo sapiens. The protocol:
In general, the presently disclosed embryotoxicity testing protocols comprise the following sequence of steps. Studies using embryoid bodies generally comprise: a) preparation of various concentrations of test solutions in culture medium or a desired solvent; b) preparation of a cell suspension by enzymatic digestion of human embryonic stem cell colonies; c) culturing the cell suspension for formation of embryoid bodies in the presence and absence of one or more test solutions, and incubation for several days (e.g., three days) in hanging drops; d) cultivation of the embryoid bodies in bacteriological petri dishes for several days (e.g., two days) under controlled conditions; e) transfer of the embryoid bodies into 96 well plates and incubation for several days (e.g., 10 days) in the presence of one or more test solutions; and f) detection of the viability of the embryoid bodies after 15 days by MTT assay, or fluorescent or luminescent method, and isolation of RNA for studying gene expression. Studies using human foreskin fibroblasts (HFF) generally comprise: a) preparation of various concentrations of test solutions in culture medium or a desired solvent; b) plating of HFF cells in 96 well plates in the presence or absence of one or more test solutions for 15 days, changing the media and test solutions every 2 days; and c) detection of the viability of HFF after 15 days by MTT assay, or fluorescent or luminescent method. Studies using human embryonic stem cells generally comprise: a) preparation of various concentrations of test solutions in culture medium or a desired solvent; b) preparation of hES colonies by manual passage in the presence and absence of one or more test solutions, and incubation for 15 days on matrigel coated plates changing the media and test solutions every 2 days; c) disruption of the colonies after 15 days with enzymes to form single cells; d) labeling of single cells with a fluorescently-labeled dye, such as propidium iodide (“PI”); and e) detection of the percentage viability with FACS as a measure of cytotoxicity.
The culturing of the cell suspension is done by dispensing about ¼ of the cell suspension along with test chemicals on the inner side of a 100 mm bacteriological petri dish. Around 50-80 drops are dispensed for each concentration, the untreated control, and the solvent control. The lid is turned carefully into its regular position and is put on top of a petri dish containing 5 ml of phosphate buffered saline (“PBS”). The “hanging drops” are incubated for three days in a humidified atmosphere with 5% CO2 at 37° C.
On day 3, 5 ml of freshly prepared test solution is added to the lid of the “hanging drops” petri dish. The embryoid bodies are carefully transferred from the lid of the “hanging drops” petri dish to a 60 mm bacteriological petri dish. The suspension is cultivated for two days in a humidified atmosphere with 5% CO2 at 37° C.
On the 5th day, the EBs are transferred into 96 well plates by placing 10 EBs in each well. About 150 μl of freshly prepared test solution is added to each well, and three wells are used for each concentration. The 96 well plates are incubated for […] in a humidified atmosphere with 5% CO2 at 37° C. The remaining EBs are plated on a 24 well plate coated with 0.2% gelatin and allowed to differentiate. Media was replaced every second day until day 15.
On the 15th day, an MTT assay is performed. MTT solution (5 mg/ml) is prepared in culture medium containing test chemical. The MTT solution is added to all wells and incubated at 37° C. in a humidified atmosphere of 5% CO2 for 4 hours, after which the MTT desorb solution (acidified isopropanol) is added to each well. The plate is shaken on a micrometer plate for 15 minutes to dissolve the formazan. The absorbance is measured at 550-570 nm in a microtiter plate reader using 630 nm as a reference wavelength.

Usually IC50 stands for the concentration at which inhibition is half-maximal.

Converted amounts (≈) assume the structure as drawn. Read-outs that look alike come from different tables or passages of the source.

In the case of `O=C1NS(=O)(=O)c2ccccc21` [Saccharin, saccharin], the “Mouse EST IC50 - mES” value with mouse ES cells was 3498 mg/L. The “Mouse EST IC50 - 3T3” value in data set [1] was 3000 mg/L. Also, in data set [2], the “concentration required to elicit a similar morphological response (loss of compactness, decreased EB size)” value worked out at 5000 μg/ml. Besides, the IC50 was determined as 1920 ± 22.5 mg/L (≈ 10.5 mM) in data set [3] (360 h, Table 3, mean of 3 experiments, day 15, read-out: IC50-hES); 1920 ± 22.5 mg/L (≈ 10.5 mM) in data set [3] (Table 4, CyQuant cell viability assay, read-out: Human EST IC50 - hES); 1550 ± 34.5 mg/L (≈ 8.44 mM) in data set [5] (360 h, read-out: IC50-hEB); 1550 mg/L (≈ 8.44 mM) in data set [5] (read-out: IC50-hEBs). Moreover, the General toxicity result in data set [4] is “Obesity”. Besides, the cell survival result in data set [5] (hEBs, 1000 μg/ml, CyQUANT, FIG. 4A/4B) is “about 60%”.
